Common to all, as to assay: NCI tumour cell line growth inhibition, 48 h
For assay [1], the system named is DLD-1.
Assay [2] concerns SNB-78.
Assay [3] deals with XF498.
Assay [4] has as its system HOP-18.
Assay [5] deals with LXFL 529.
Assay [6] concerns M19-MEL.
Assay [7] has as its system RXF 631.

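Compound exposure: 48 hours, 5 concentrations, 96-well plates. Abbreviation: GI50, concentration required for 50% inhibition of growth.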 Calls of active or inactive are those of the source. No stated cut-off is given here; in the data, active = GI50 up to about 1.1 µM and inactive = higher. Some results are limits rather than exact numbers.

Consider `CCCCCCCCCCCCCC(=O)NO`, for which the GI50 in assay [1] is 13.2 µM (inactive); in assay [2] it was 19.8 µM (inactive); in assay [3] it was 24.4 µM (inactive); in assay [4], 34.4 µM (inactive); in assay [5], 5.14 µM (inactive); in assay [6] it was 24 µM (inactive). The GI50 in assay [7] is 10.9 µM (inactive).
For the compound `C=C(C)[C@H]1CC[C@@]2(C)C(C1)[C@H](C)CC[C@@H]2O` (stereo partly drawn), the GI50 in assay [1], in assay [2], in assay [3], in assay [4], in assay [5] and in assay [6] was > 100 µM (inactive) in each case. Also, the GI50 in assay [7] was > 100 µM (inactive).
Consider `C[Si](C)(C)C#C[I+]c1ccccc1`, for which the GI50 in assay [1] was 19.4 µM (inactive); in assay [2], 50.2 µM (inactive); in assay [3], 29.8 µM (inactive); in assay [4], 75.5 µM (inactive); in assay [5] it was 28.4 µM (inactive); in assay [6], 31.6 µM (inactive). For the same compound, the GI50 in assay [7] is 30.1 µM (inactive).
For `CCC(=O)OC[n+]1ccc2c(C)c3[nH]c4ccccc4c3c(C)c2c1`, the GI50 is 0.229 µM (active) in assay [1]; 1.29 µM (inactive) in assay [2]; 1.88 µM (inactive) in assay [3]; < 0.01 µM (active) in assay [4]; 0.413 µM (active) in assay [5]; 0.681 µM (active) in assay [6]. Also, the GI50 in assay [7] was 0.504 µM (active).
With `C=CCNC1=NC(=O)C(CC(=O)Nc2ccc([N+](=O)[O-])cc2[N+](=O)[O-])S1` (stereo not drawn), the GI50 in assay [1], in assay [2], in assay [3], in assay [4], in assay [5] and in assay [6] was > 100 µM (inactive) in each case. Besides, the GI50 in assay [7] was > 100 µM (inactive).
For the compound `CSc1ccc(C2OC(=O)c3ccccc32)c2ccccc12` (stereo not drawn), the GI50 in assay [1] is 86.5 µM (inactive); in assay [2], 46.5 µM (inactive); in assay [3], 61.8 µM (inactive); in assay [4], 40.6 µM (inactive); in assay [5] it was 58.3 µM (inactive); in assay [6], > 100 µM (inactive). Also, the GI50 in assay [7] was > 100 µM (inactive).
With `Cc1ccccc1-c1c(N)nc(N)nc1C(=O)Nc1nccs1`, the GI50 in assay [1], in assay [2], in assay [3], in assay [4], in assay [5] and in assay [6] was > 100 µM (inactive) each time. Besides, the GI50 in assay [7] was > 100 µM (inactive).
`COC(=O)C(C(=O)C(=O)Nc1cccc(C)c1)C1=NC(N)SS1` (stereo not drawn): the GI50 in assay [1], in assay [2], in assay [3], in assay [4], in assay [5] and in assay [6] was > 100 µM (inactive) each time. For the same compound, the GI50 in assay [7] was > 100 µM (inactive).
In the case of `COC(C(=O)NCCCCNC(=O)C(OC)c1ccccc1)c1ccccc1` (stereo not drawn), the GI50 in assay [1], in assay [2], in assay [3], in assay [4], in assay [5] and in assay [6] was > 100 µM (inactive) throughout. Also, in assay [7], the GI50 is > 100 µM (inactive).

The values are drawn from ChEMBL document CHEMBL1201862, “PubChem BioAssay data set” (2004).
